In patent US20260285871A1, “Polymorphic Compounds and Uses Thereof” (TYRA BIOSCIENCES, INC., priority 2022, published 2026):

Experiment: Crystallization (polymorph) studies of compound A free base: fast/slow evaporation, slurry at 25° C., anti-solvent addition, vapor diffusion; solids analysed by XRPD
Type: physicochemical
Conditions: for FE: fast evaporative crystallization; for Results from Slow Evaporation Crystallization Experiments: slow evaporation at room temperature; for Slurry: slurry at 25° C., three days
Description: I. Fast Evaporative Crystallization Method (FE): compound A (ca. 30 mg) was dissolved in minimum quantity the stated solvent while heating at 80° C. The resulted solutions were filtered using a 0.45 μm PTFE syringe filter and the filtrate was collected. The filtrate was evaporated using a rotavap.
II. Slow Evaporative Crystallization Method (SE): compound A (ca. 30 mg) was dissolved in minimum quantity the stated solvent while heating at 80° C. The resulted solutions were filtered using a 0.45 μm PTFE syringe filter and the filtrate was collected. The filtrate was covered with perforated aluminum foil and left to evaporate at ambient temperature.
III. Slurry Crystallization at 25° C. using Form I of compound A: compound A (ca. 100 mg) was suspended in minimum quantity the stated solvent. The resulted slurries were allowed to stir at 25° C. for three days.
IV. Anti-Solvent Addition Crystallization: compound A (ca. 50 mg) was dissolved in solubilizing solvent. To that solution 200 μL anti-solvent was added slowly. These iterations were continued until the precipitation observed or maximum solvent quantity of ~25 mL. Many solvents were used as the solubilizing solvent in these experiments. Selection of anti-solvent for each solubilizing solvent is based on the miscibility between them.
V. Vapor Diffusion Crystallization: compound A (ca. 30 mg) was dissolved in solubilizing solvent and kept in a small (8 mL) vial. These vials were kept in a larger vial (40 mL) that had 15 mL anti-solvents and closed the vial cap to allow vapor diffusion between them. Many solvents were used as the solubilizing solvent in these experiments. Selection of anti-solvent for each solubilizing solvent is based on the miscibility between them. All the experiments were kept in undisturbed laboratory bench and observed periodically to see if any crystals were grown during that time.
Compound A was slurred in respective solvents and stirred at 25° C. for three days. A total of five unique XRPD patterns were identified and designated as Form I, Form II, Form III, Form IV, and Form V.
Compound A was dissolved in a suitable solvent while heating up to 80° C. and the resultant solutions were allowed to slowly evaporate at room temperature (25° C.).
Compound A was dissolved in suitable solvents. To those solutions anti-solvents were added to obtain the solids. The solvent and anti-solvent selection was based on the solubility of compound A and also miscibility between them.

[1] = solvent 14DOX, anti-solvent DEE
[2] = solvent 14DOX, anti-solvent T-Butyl Methyl Ether
[3] = solvent CHCl3, anti-solvent 4-Me-2Pentanone
[4] = solvent CHCl3, anti-solvent DEE
[5] = solvent CHCl3, anti-solvent T-Butyl Methyl Ether
[6] = solvent DCM, anti-solvent 4-Me-2Pentanone
[7] = solvent DCM, anti-solvent T-Butyl Methyl Ether
[8] = solvent DMSO, anti-solvent Water
[9] = solvent EtOAc, anti-solvent 4-Me-2Pentanone
[10] = solvent EtOAc, anti-solvent DEE
[11] = solvent EtOAc, anti-solvent T-Butyl Methyl Ether
[12] = solvent EtOH, anti-solvent 4-Me-2Pentanone
[13] = solvent EtOH, anti-solvent T-Butyl Methyl Ether
[14] = solvent EtOH, anti-solvent Water
[15] = solvent IPA, anti-solvent 4-Me-2Pentanone
[16] = solvent IPA, anti-solvent T-Butyl Methyl Ether
[17] = solvent MeOH, anti-solvent 4-Me-2Pentanone
[18] = solvent MeOH, anti-solvent T-Butyl Methyl Ether
[19] = solvent MeOH, anti-solvent Water
[20] = solvent THF, anti-solvent 4-Me-2Pentanone
[21] = solvent THF, anti-solvent T-Butyl Methyl Ether
[22] = solvent THF, anti-solvent Water

C[C@@H](Oc1ccc2[nH]nc(-c3ccc(N4CC5(C4)CN(S(C)(=O)=O)C5)nc3)c2c1)c1c(Cl)cncc1Cl [Compound A, 5-[(1R)-1-(3,5-dichloro-4-pyridyl)ethoxy]-3-[6-(2-methylsulfonyl-2,6-diazaspiro[3.3]heptan-6-yl)-3-pyridyl]-1H-indazole]
FE (solvent 4-Me 2-Pentanone): Not Dissolved | FE (solvent ACN): Form II | FE (solvent Acetone): Form II | FE (solvent CHCl3): Clear film | FE (solvent DEE): Not Dissolved | FE (solvent EtOAc): Form VIII | FE (solvent EtOH): Form IV | FE (solvent H2O): Not Dissolved | FE (solvent IPA): Form IV | FE (solvent MeOH): Form IV | FE (solvent THF): Clear film | FE (solvent tert-butyl methyl ether): Not Dissolved | Results from Slow Evaporation Crystallization Experiments (solvent 1,2-Propdiol): Form IV | Results from Slow Evaporation Crystallization Experiments (solvent 4-Me 2-Pentanone): Form I | Results from Slow Evaporation Crystallization Experiments (solvent ACN): Form IV | Results from Slow Evaporation Crystallization Experiments (solvent Acetone): Form IV and 5 | Results from Slow Evaporation Crystallization Experiments (solvent DCM): Form IV | Results from Slow Evaporation Crystallization Experiments (solvent DEE): Form I | Results from Slow Evaporation Crystallization Experiments (solvent DMF): Form IV | Results from Slow Evaporation Crystallization Experiments (solvent DMSO): Form IV | Results from Slow Evaporation Crystallization Experiments (solvent EtOAc): Form IV | Results from Slow Evaporation Crystallization Experiments (solvent EtOH): Form IV | Results from Slow Evaporation Crystallization Experiments (solvent Eth. Gly): Form IV | Results from Slow Evaporation Crystallization Experiments (solvent H2O): Form I | Results from Slow Evaporation Crystallization Experiments (solvent IPA): Form IV | Results from Slow Evaporation Crystallization Experiments (solvent MeOH): Form II | Results from Slow Evaporation Crystallization Experiments (solvent T-ButylMethEther): Form I | Results from Slow Evaporation Crystallization Experiments (solvent THF): Form IV | Slurry (solvent 1,2-Propdiol): Form I | Slurry (solvent 4-Me 2-Pentanone): Form I | Slurry (solvent 14DOX): Form VI | Slurry (solvent ACN): Form III | Slurry (solvent Acetone): Form II | Slurry (solvent CHCl3): Form III | Slurry (solvent DCM): Form II | Slurry (solvent DEE): Form I | Slurry (solvent DMF): Form VII | Slurry (solvent EtOAc): Form I | Slurry (solvent EtOH): Form I | Slurry (solvent Eth. Gly): Form I | Slurry (solvent H2O): Form I | Slurry (solvent IPA): Form I | Slurry (solvent MeOH): Form II | Slurry (solvent T-ButylMethEther): Form I | Slurry (solvent THF): Form III | Results of Anti-Solvent Addition Studies (solvent 14DOX, anti-solvent 4-Me-2Pentanone): No XRPD - | Results of Anti-Solvent Addition Studies [1]: Form II | Results of Vapor Diffusion Studies [1]: Form VIII | Results of Anti-Solvent Addition Studies [2]: Form I | Results of Vapor Diffusion Studies [2]: Form VIII | Results of Anti-Solvent Addition Studies (solvent 14DOX, anti-solvent Water): Form V | Results of Anti-Solvent Addition Studies (solvent ACN, anti-solvent 4-Me-2Pentanone): No XRPD - | Results of Anti-Solvent Addition Studies (solvent ACN, anti-solvent DEE): No XRPD - | Results of Anti-Solvent Addition Studies (solvent ACN, anti-solvent T-Butyl Methyl Ether): Form IV | Results of Anti-Solvent Addition Studies (solvent ACN, anti-solvent Water): Form V + | Results of Anti-Solvent Addition Studies (solvent Acetone, anti-solvent 4-Me-2Pentanone): No XRPD - | Results of Anti-Solvent Addition Studies (solvent Acetone, anti-solvent DEE): Form II | Results of Anti-Solvent Addition Studies (solvent Acetone, anti-solvent T-Butyl Methyl Ether): Form I | Results of Anti-Solvent Addition Studies (solvent Acetone, anti-solvent Water): Form V | Results of Anti-Solvent Addition Studies [3]: Form II | Results of Vapor Diffusion Studies [3]: Form I + | Results of Anti-Solvent Addition Studies [4]: Form I | Results of Vapor Diffusion Studies [4]: Form VIII | Results of Anti-Solvent Addition Studies [5]: Form I | Results of Vapor Diffusion Studies [5]: Form I | Results of Anti-Solvent Addition Studies [6]: Form IV | Results of Vapor Diffusion Studies [6]: Form I + | Results of Anti-Solvent Addition Studies (solvent DCM, anti-solvent DEE): Form II | Results of Vapor Diffusion Studies (solvent DCM, anti-solvent DEE): Form IV | Results of Anti-Solvent Addition Studies [7]: Form I | Results of Vapor Diffusion Studies [7]: Form I + | Results of Anti-Solvent Addition Studies (solvent DMF, anti-solvent 4-Me-2Pentanone): No XRPD - | Results of Anti-Solvent Addition Studies (solvent DMF, anti-solvent DEE): Form VIII | Results of Anti-Solvent Addition Studies (solvent DMF, anti-solvent T-Butyl Methyl Ether): Form II | Results of Anti-Solvent Addition Studies (solvent DMF, anti-solvent Water): Form II | Results of Anti-Solvent Addition Studies (solvent DMSO, anti-solvent T-Butyl Methyl Ether): Form IV | Results of Anti-Solvent Addition Studies [8]: Amorphous | Results of Vapor Diffusion Studies [8]: Form IV + | Results of Anti-Solvent Addition Studies [9]: Form IV + | Results of Vapor Diffusion Studies [9]: Form IV | Results of Anti-Solvent Addition Studies [10]: Form IV | Results of Vapor Diffusion Studies [10]: Form IV | Results of Anti-Solvent Addition Studies [11]: Form I | Results of Vapor Diffusion Studies [11]: Form IV | Results of Anti-Solvent Addition Studies [12]: No XRPD - | Results of Vapor Diffusion Studies [12]: No XRPD - | Results of Anti-Solvent Addition Studies (solvent EtOH, anti-solvent DEE): Form IV | Results of Vapor Diffusion Studies (solvent EtOH, anti-solvent DEE): Form IV | Results of Anti-Solvent Addition Studies [13]: Form IV | Results of Vapor Diffusion Studies [13]: Form IV | Results of Anti-Solvent Addition Studies [14]: Form IV + | Results of Vapor Diffusion Studies [14]: Form IV + | Results of Anti-Solvent Addition Studies [15]: No XRPD - | Results of Vapor Diffusion Studies [15]: Form IV | Results of Anti-Solvent Addition Studies (solvent IPA, anti-solvent DEE): Form IV | Results of Vapor Diffusion Studies (solvent IPA, anti-solvent DEE): Form IV | Results of Anti-Solvent Addition Studies [16]: Form IV | Results of Vapor Diffusion Studies [16]: Form IV + | Results of Anti-Solvent Addition Studies (solvent IPA, anti-solvent Water): Form IV + | Results of Anti-Solvent Addition Studies [17]: No XRPD - | Results of Vapor Diffusion Studies [17]: No XRPD - | Results of Anti-Solvent Addition Studies (solvent MeOH, anti-solvent DEE): Form II | Results of Anti-Solvent Addition Studies [18]: Form II | Results of Vapor Diffusion Studies [18]: Form II | Results of Anti-Solvent Addition Studies [19]: Form II | Results of Vapor Diffusion Studies [19]: Form II | Results of Anti-Solvent Addition Studies [20]: Form I | Results of Vapor Diffusion Studies [20]: Form II | Results of Anti-Solvent Addition Studies (solvent THF, anti-solvent DEE): Form II | Results of Vapor Diffusion Studies (solvent THF, anti-solvent DEE): Form IV | Results of Anti-Solvent Addition Studies [21]: Form I | Results of Vapor Diffusion Studies [21]: Form VIII | Results of Anti-Solvent Addition Studies [22]: Form V | Results of Vapor Diffusion Studies [22]: Form V
